Consider one compound from US20120165384A1, “INHIBITION OF HISTONE ACETYLTRANSFERASES BY CTK7A AND METHODS THEREOF” (JAWAHARLAL NEHRU CENTRE FOR ADVANCED SCIENTIFIC RESEARCH, priority 2009, published 2012).

For one experiment, the target named is T1, PCAF (Homo sapiens, UniProt Q92831).
T1 construct: Recombinant baculovirus expressing full-length FLAG-tagged CARM1,CBP and PCAF; FLAG; made in house; host or cells: baculovirus-infected Sf21 cells
Nature of the experiment: HAT assay with recombinant PCAF. Type of experiment: biochemical. The method, then: Recombinant baculovirus expressing full-length FLAG-tagged CARM1,CBP and PCAF were purified by immunoaffinity chromatography using M2-agarose beads followed by elution with FLAG peptide. Baculovirus-expressed full-length hexahistidine-tagged p300, and G9a were purified using Ni-NTA affinity chromatography as described previously^30.
(§1) HAT gel fluorography/autoradiography assays were performed as previously reported^30. Kinetic analysis of p300 HAT inhibition was performed as reported earlier^31 in the presence of (0, 30 and 50 μM) CTK7A. The obtained values were plotted as a lineweaver burk plot using Graphpad Prism software. For p300 Autoacetylation assay, reactions of p300 full length (80 ng) were carried out in HAT assay buffer at 30° C. for 10 minutes with or without the protein (NPM1) followed by addition of 1 μl of 4.7 Ci/mmol [^3H] acetyl CoA (NEN-PerkinElmer) and were further incubated for another 10 min in a 30 μl reaction. GAPDH was used as positive control. The radio-labeled acetylated p300 were processed by fluorography followed by autoradiography.

A further experiment deals with Tip60 (Homo sapiens, UniProt Q92993). Nature of the experiment: HAT assay, Tip60. Type of experiment: biochemical. Conditions: even at 100 μM. As to the method:
as §1

Another experiment has as its target T2, SIRT2 (Homo sapiens, UniProt Q8IXJ6).
T2 construct: made in house
T2 sequence (Q8IXJ6 1-389): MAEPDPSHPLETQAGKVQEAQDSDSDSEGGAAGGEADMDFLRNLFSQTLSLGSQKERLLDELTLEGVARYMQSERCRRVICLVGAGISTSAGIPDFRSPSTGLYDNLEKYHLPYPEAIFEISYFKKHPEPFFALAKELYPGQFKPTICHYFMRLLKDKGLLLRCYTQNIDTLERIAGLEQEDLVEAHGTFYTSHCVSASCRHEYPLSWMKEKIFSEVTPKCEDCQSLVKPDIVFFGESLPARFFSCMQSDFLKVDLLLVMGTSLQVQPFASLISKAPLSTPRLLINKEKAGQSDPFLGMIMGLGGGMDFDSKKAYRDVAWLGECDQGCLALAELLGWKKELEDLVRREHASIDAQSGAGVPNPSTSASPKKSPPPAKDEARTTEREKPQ
Briefly: SirT2 deacetylase assay. Type of experiment: biochemical. Conditions: even at 100 μM. As to the method: The deacetylation assay was performed as per standard protocol^31. For SirT2 deacetylase assay, 50 ng of bacterially expressed, recombinant enzyme was added in the presence or absence of cofactor NAD^+. HMTase was performed as reported earlier^31.

The target in the next experiment is p300 (Homo sapiens, UniProt Q09472). Briefly: p300 autoacetylation enhanced by cocktail of HDAC inhibitors (immunoprecipitation). Type of experiment: cell-based. The method, then: Whole cell extract were prepared using RIPA buffer as mentioned above. The pre-blocked protein-G sepharose-bound antibody (4 μg) was incubated with 500 μg whole cell lysate overnight at 4° C. After extensive washes, bead-bound protein were analysed by western blotting with indicated antibodies. For HDAC inhibitors treatment, 5 mM sodium butyrate, 5 mM nicotiamide and 100 ng ml^−1 TSA were added 10 h before cells were harvest^36.

Experiment [1] relates to cyclin E and cyclin D1 expression in KB cells. Briefly: Cyclin expression in KB cells. Type of experiment: cell-based. The method, then: KB cells were maintained in Dullbecco's modified Eagle medium (DMEM) with 10% fetal bovine serum (FBS) at 37° C. with a 5% CO2 atmosphere in a humidified incubator. For IFNγ and GSNO treatment, KB cells were incubated in the presence of IFNγ 10 ng ml^−1 for an additional 16 h and 24 h respectively. Immunofluorescent staining of cells for confocal microscopy was carried out as described previously^30. CTK7A treatment was done for 24 h followed by acid extraction of histone and immunoblotting as per standard protocol^31. For whole cell extract preparation RIPA buffer (Tris-HCl 50 mM, pH 7.4 NP-40 1%, Na-deoxycholate 0.25%, NaCl 150 mM, EDTA 1 mM, Phenylmethylsulfonyl fluoride (PMSF), 1 mM Na3VO4, 1 mM NaF and protease inhibitor cocktail) was used.

In experiment [2] the test system is H3 acetylation at the cyclin E promoter in KB cells. Briefly: ChIP assay, acetylated H3 at cyclin E promoter. Type of experiment: cell-based. Conditions: 24 hrs treatment. As to the method:
The pull-downs for ChIP assay was performed using anti-acetylated H3 (H3AcK9AcK14) (Santa Cruz) antibody. KB cells were maintained in DMEM supplemented with 10% FBS were treated with CTK7A and cells were grown for 24 hrs. For ChIP assay cells were processed as described elsewhere^47. The pulldown was done using antibody against the above antibody and the immunoprecipitated samples were deproteinized and ethanol-precipitated to recover the DNA. Real-time PCR analysis was performed using primers for the cyclin E promoter region. PCR primers for the cyclin E promoter region were […]

In another experiment the test system is KB cell tumors. Briefly: Immunohistochemistry of KB cell tumors from treated mice. Type of experiment: in vivo, nude mice (BALB/c). As to the method:
After deparafinizing, slides were rinsed in ethanol. Antigen retrieval was performed with sodium citrate (10 mM pH 6.0) for 5 min at 98° C. The staining was performed with the Envision kit (Dako, Denmark). Counterstaining was performed with Mayer's haematoxylin, and mounted in DPX and air dried. Each of the sample specimens was pathologically confirmed before carrying out the immunohistochemistry. For statistical analysis, cells (100 cells from a total of 5-6 independent fields) were counted from both normal and tumor tissue sections and scored for percentage of positive cells (brown colour) for the indicated antibodies. For comparison one-way ANOVA was performed using “Sigmaplot Software”. P-value<0.01 was considered as statistically significant, n=31.
Animal experiments were performed with the approval by authorized ethics Committee. Sixteen nude mice (BALB/c) were included in the experiments (10 male and 6 female mice). Mice were kept in isolators in a pathogen free environment. All nude mice were 3-4 weeks old at the start of the experiments. KB cells, 2×10^6 cells were inoculated in each mice in the right and left flanks, respectively. Mice were then divided in two groups (5 males and 3 females) in each group. After the tumors grown to palpable in size, CTK7A treatment were given intraperitoneally (i.p) with 100 mg/kg body weight/twice a day. Tumors were measured once in three days with a caliper and their volumes were calculated by the formula: 0.52×D1×(D2)^2, where ‘D1’ and ‘D2’ are, respectively, the longest and shortest dimension. The last dose of the compound (CTK7A) was administered four hour before sacrificing it. Tumors were removed and put into liquid nitrogen or were fixed in 10% formalin for 1-2 h to make blocks to be used for IHC. For comparing tumor sizes between treated and control one-way ANOVA was performed using “Sigmaplot Software”. P-value<0.05 was considered as statistically significant.

Tip60, sequence (Q92993 whole entry, species assumed): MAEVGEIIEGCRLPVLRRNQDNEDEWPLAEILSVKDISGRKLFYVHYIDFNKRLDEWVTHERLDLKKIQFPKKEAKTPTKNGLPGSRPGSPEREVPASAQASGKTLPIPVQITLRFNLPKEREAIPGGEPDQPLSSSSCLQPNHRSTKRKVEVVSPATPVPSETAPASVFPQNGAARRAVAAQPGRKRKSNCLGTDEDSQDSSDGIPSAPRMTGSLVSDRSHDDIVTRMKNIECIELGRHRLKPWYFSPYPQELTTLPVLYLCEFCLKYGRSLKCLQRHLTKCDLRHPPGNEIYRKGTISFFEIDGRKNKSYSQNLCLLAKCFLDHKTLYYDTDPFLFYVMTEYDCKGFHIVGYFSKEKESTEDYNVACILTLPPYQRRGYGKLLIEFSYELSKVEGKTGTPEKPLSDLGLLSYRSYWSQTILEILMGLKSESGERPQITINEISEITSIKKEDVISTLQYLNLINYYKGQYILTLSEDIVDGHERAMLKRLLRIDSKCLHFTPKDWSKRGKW
p300, sequence (Q09472 whole entry, species assumed): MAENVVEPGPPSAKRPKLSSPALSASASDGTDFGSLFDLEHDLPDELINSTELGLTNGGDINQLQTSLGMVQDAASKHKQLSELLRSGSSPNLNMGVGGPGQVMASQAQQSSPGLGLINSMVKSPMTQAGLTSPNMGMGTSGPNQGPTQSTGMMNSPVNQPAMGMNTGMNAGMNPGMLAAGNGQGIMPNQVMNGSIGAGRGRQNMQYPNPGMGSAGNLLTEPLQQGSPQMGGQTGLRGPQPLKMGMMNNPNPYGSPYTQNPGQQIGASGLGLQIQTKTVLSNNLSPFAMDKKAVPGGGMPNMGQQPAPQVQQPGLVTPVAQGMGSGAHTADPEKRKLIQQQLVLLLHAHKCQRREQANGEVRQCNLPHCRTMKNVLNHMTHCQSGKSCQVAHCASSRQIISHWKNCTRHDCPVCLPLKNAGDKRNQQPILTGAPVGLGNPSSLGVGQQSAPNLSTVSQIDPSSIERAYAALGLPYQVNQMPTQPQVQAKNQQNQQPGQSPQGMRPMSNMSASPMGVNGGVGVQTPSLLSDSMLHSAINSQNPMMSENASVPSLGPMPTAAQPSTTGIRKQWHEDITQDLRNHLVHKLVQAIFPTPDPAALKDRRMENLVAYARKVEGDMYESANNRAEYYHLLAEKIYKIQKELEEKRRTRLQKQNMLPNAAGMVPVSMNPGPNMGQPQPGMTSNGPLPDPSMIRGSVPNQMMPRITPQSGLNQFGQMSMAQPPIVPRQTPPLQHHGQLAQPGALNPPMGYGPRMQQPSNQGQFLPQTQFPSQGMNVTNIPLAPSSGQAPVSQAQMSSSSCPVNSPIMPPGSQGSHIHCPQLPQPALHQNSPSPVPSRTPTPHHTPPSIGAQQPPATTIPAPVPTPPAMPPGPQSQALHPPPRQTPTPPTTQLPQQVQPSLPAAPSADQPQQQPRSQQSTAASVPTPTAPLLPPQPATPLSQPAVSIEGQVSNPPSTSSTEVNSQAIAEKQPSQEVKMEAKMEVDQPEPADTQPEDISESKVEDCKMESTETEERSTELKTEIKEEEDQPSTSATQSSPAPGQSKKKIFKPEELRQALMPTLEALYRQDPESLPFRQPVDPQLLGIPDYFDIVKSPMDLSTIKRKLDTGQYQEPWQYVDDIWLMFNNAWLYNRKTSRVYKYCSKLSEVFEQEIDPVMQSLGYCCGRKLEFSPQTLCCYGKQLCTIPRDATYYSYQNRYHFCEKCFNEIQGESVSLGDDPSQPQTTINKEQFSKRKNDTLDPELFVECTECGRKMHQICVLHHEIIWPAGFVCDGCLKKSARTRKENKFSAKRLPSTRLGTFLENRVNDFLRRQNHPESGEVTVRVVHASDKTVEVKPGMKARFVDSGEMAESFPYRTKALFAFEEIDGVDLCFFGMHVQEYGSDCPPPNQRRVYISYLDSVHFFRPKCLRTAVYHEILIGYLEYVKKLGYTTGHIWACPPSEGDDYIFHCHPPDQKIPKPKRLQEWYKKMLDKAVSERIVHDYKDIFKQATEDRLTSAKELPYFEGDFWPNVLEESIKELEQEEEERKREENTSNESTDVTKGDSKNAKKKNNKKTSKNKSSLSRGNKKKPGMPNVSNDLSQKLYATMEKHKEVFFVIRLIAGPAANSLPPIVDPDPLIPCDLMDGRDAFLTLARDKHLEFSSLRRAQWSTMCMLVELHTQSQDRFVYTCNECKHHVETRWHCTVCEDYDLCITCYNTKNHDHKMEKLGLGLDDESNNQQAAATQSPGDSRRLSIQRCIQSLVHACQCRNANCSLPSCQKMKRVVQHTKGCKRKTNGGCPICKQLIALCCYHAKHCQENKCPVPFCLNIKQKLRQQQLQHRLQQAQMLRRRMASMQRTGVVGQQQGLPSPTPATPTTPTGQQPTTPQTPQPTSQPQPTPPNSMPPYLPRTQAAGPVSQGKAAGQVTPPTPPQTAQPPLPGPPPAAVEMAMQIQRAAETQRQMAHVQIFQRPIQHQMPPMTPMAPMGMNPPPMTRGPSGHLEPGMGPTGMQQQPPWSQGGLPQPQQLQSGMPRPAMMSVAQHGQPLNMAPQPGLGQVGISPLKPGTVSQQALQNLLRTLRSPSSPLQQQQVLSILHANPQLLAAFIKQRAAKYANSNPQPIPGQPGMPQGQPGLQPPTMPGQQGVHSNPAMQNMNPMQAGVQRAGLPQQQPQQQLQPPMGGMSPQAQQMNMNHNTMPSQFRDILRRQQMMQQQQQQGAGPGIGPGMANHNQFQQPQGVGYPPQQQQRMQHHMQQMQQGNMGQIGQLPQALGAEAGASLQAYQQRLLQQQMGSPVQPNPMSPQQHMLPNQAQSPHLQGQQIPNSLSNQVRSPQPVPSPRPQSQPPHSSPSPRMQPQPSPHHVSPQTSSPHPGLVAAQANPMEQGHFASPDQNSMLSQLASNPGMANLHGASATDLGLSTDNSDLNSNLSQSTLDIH
T1 sequence (Q92831 whole entry, species assumed): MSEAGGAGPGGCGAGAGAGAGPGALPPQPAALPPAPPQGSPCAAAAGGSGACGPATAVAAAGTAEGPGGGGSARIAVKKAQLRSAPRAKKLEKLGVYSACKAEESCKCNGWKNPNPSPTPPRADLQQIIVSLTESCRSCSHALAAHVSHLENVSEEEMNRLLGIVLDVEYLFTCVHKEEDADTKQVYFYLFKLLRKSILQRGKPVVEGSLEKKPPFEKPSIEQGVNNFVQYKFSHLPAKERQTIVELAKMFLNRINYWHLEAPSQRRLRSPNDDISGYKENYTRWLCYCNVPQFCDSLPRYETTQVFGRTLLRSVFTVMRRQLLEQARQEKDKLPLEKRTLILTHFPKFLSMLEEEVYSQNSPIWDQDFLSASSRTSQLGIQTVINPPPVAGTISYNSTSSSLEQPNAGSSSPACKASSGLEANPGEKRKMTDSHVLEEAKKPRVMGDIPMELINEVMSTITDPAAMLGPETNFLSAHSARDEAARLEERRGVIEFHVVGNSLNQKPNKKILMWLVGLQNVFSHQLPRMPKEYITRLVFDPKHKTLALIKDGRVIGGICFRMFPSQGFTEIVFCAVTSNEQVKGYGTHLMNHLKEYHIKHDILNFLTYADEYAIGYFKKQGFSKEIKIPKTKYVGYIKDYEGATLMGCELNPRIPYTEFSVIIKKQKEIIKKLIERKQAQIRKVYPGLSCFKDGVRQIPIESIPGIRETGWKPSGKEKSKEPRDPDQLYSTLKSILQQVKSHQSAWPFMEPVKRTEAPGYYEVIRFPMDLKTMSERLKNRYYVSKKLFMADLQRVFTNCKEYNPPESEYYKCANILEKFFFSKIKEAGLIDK

For `COc1cc([O-])cc(C=CC2=NN(c3ccc(C(=O)[O-])cc3)C(C=Cc3cc([O-])cc(OC)c3)C2)c1.[Na+].[Na+].[Na+]` (centres unmarked) [CTK7A, Sodium 4-(3,5-bis(3-methoxy-5-oxidostyryl)-4,5dihydro-1H-pyrazole-1-yl)benzoate], the “inhibition of PCAF HAT activity” value on PCAF is recorded as “inhibit”. Further, on Tip60, the “effect on Tip60 activity” value is reported as “unaffected”. Further, the “effect on SIRT2 activity” value at SIRT2 was “unaffected”. Further, at p300, the “inhibition of enhanced autoacetylation of p300” value is “inhibit”. For the same compound, in experiment [1], the “cyclin D1 expression” value is given as “affected marginally”. Further, the “cyclin E expression” value in experiment [1] (dose dependent) was “down regulated”. Further, in experiment [2], the “acetylation of H3 at the cyclin E promoter” value was “inhibited”. In addition, in the experiment on KB cell tumors (i.p. 100 mg/kg twice a day), the “levels of COX2 in tumors (IHC)” value is “suppressed”; the “levels of GAPDH in tumors (IHC)” value is given as “down regulated”; the “levels of H3K9, K14 acetylation (H3AcK9AcK14) in tumors (IHC)” value is recorded as “decreased”; the “levels of NPM1 in tumors (IHC)” value is given as “down regulated”. In the experiment on KB cell tumors (i.p. 100 mg/kg twice a day), the “levels of ac-p300 in tumors (IHC)” value was “decreased”, the “levels of iNOS in tumors (IHC)” value is reported as “down regulated”, the “p300 expression in tumors (IHC)” value is reported as “marginal affect” and the “proliferation marker Ki-67 in tumors (IHC)” value is on record as “down regulation”. Further, the “nuclear GAPDH in tumors (IHC)” value with KB cell tumors (present in control mice) is “absent or very faintly present”. Moreover, the “inhibition of H3K14 acetylation compared with H3K9 acetylation in tumors (IHC)” value in the experiment on KB cell tumors (site specific antibodies) was “more potently”.
